From PubChem BioAssay AID2060621 (Molecular Pharmacology Branch, DTP, NCI, 2025)

System: 324938-238-R-J1-PDC complex spheroids viability
Experiment: Anticancer human tumor 324938-238-R-J1-PDC patient-derived bladder carcinoma cell line growth inhibition [CLK]
Details: for IC50: curve of first compound; for viability, T/C: stronger effect = lower value
From the text: A high-throughput screen of multi-cell type tumor spheroids was designed to identify active combinations of […] and targeted small molecules. Complex spheroids include a stromal component modeled by human endothelial cells (HUVEC) and fibroblasts modeled by human mesenchymal stem cells (MSCs). The concentration ranges selected for each drug and investigational agent were based upon clinically achievable concentrations if the clinical Cmax of the agent was known.
Compounds. The drugs and investigational agents: cirtuvivint (SM08502; NSC835563), CC-671 (NSC850746), vemurafenib (NSC761431), tapotoclax (NSC804041), sotorasib (NSC818433), adagrasib (NSC831453), MRTX-1133 (NSC836407), BAY2416964 (NSC825713), copanlisib (NSC816437), inavolisib (NSC800729), abemaciclib (NSC768073), osimertinib (NSC779217), entinostat (NSC756642), eltanexor (KPT-8602, NSC794443), venetoclax (NSC766270), ceralasertib (NSC777638), bortezomib (NSC756655), olaparib (NSC753686), talazoparib (NSC767125), alisertib (NSC759677), peposertib (NSC802822), gemcitabine (NSC613327), 5-fluorouracil (NSC19893), SN-38 (NSC673596), oxaliplatin (NSC266046), paclitaxel (NSC125973), and doxorubicin (NSC123127), were obtained from the National Cancer Institute (NCI) Developmental Therapeutics Program Chemical Repository. The FDA-approved anticancer drug set is available from the Developmental Therapeutics Program at https://dtp.cancer.gov/organization/dscb/obtaining/available plates.htm. […] The stock solutions were prepared in dimethyl sulfoxide (DMSO, Sigma-Aldrich, St. Louis, MO, cat. D2650), except for the platinum complexes which were prepared in saline (Quality Biological, Gaithersburg, MD, cat. 114-055-101), at 800-fold the tested concentration and stored at -70 degrees C prior to their use. All drugs and investigational agents were tested over a range starting from a high concentration at or near the clinical Cmax and decreasing in half-log increments. If the clinical Cmax for an agent had not been determined, the highest concentration tested was 10 microM.
Cell Culture. All cells were maintained in an incubator at 37 degrees C and 5% CO2 with 95% humidity. The PDC lines were cultured according to standard operating procedures established by the NCI PDMR. Briefly, all PDCs were thawed and cultured in Matrigel-coated flasks prepared with a working solution of 1X Ham's F-12 nutrient mix, without supplementation (Invitrogen, Waltham, MA, cat. 11765054), 100 U/mL penicillin-streptomycin (Invitrogen, cat. 15140122), and 2.5% Matrigel (Corning Inc., Corning, NY, cat. 354248) for the first three passages. The 947758-054-R-J2-PDC line was cultured in 6B/Colon 1A media, which includes advanced DMEM/F-12 (Thermo Fisher Scientific, cat. 12634028), 10 mM HEPES (Thermo Fisher Scientific, cat. 15630080), 1X GlutaMAX supplement (Thermo Fisher Scientific, cat. 35050061), 0.1 mg/mL primocin (InvivoGen, cat. ant-pm-2), 10% defined fetal bovine serum, heat inactivated (HyClone Laboratories Inc., cat. SH30070.03HI), 1.25 mM N-Acetyl-L-cysteine (Sigma-Aldrich, cat. A9165), 10 mM nicotinamide (Sigma-Aldrich, cat. N0636), 1X B-27 supplement (Thermo Fisher Scientific, cat. 17504044), 1X N-2 supplement (Thermo Fisher Scientific, cat. 17502048), and 10 microM Y-27632 dihydrochloride (Tocris Bioscience, cat. 1254). The 876862-298-R-J1-PDC was cultured in 6E media, which includes all 6B/Colon 1A media components plus 50% L-WRN conditioned media (ATCC, cat. CRL-3276), 50 ng/mL recombinant human EGF recombinant protein (hEGF; Thermo Fisher Scientific, cat. PHG0311), 10 ng/mL recombinant human fibroblast growth factor 10 (hGFG-10; PeproTech, cat. 100-26), 1 ng/mL recombinant human fibroblast growth factor 2 (hFGF-2; PeproTech, cat. 100-18B), and 1 µM prostaglandin E2 (PGE2; Tocris, cat. 2296). The 227483-062-R1-J1-PDC line was cultured in Panc media, containing all 6E components except hFGF-2, with the addition of 500 nM SB-431542 (Selleckchem, cat. S1067) and 10 nM gastrin (Tocris, cat. 3006). […]

[1] = second compound 0.0316 µM, first compound 0.0316 µM
[2] = second compound 0.0316 µM, first compound 0.1 µM
[3] = second compound 0.0316 µM, first compound 0.316 µM
[4] = second compound 0.0316 µM, first compound 1 µM
[5] = second compound 0.0316 µM, first compound 3.16 µM
[6] = second compound 0.0316 µM, first compound 10 µM
[7] = second compound 0.1 µM, first compound 0.0316 µM
[8] = second compound 0.1 µM, first compound 0.1 µM
[9] = second compound 0.1 µM, first compound 0.316 µM
[10] = second compound 0.1 µM, first compound 1 µM
[11] = second compound 0.1 µM, first compound 3.16 µM
[12] = second compound 0.1 µM, first compound 10 µM
[13] = second compound 0.316 µM, first compound 0.0316 µM
[14] = second compound 0.316 µM, first compound 0.1 µM
[15] = second compound 0.316 µM, first compound 0.316 µM
[16] = second compound 0.316 µM, first compound 1 µM
[17] = second compound 0.316 µM, first compound 3.16 µM
[18] = second compound 0.316 µM, first compound 10 µM
[19] = second compound 1 µM, first compound 0.0316 µM
[20] = second compound 1 µM, first compound 0.1 µM
[21] = second compound 1 µM, first compound 0.316 µM
[22] = second compound 1 µM, first compound 1 µM
[23] = second compound 1 µM, first compound 3.16 µM
[24] = second compound 1 µM, first compound 10 µM
[25] = second compound 3.16 µM, first compound 0.0316 µM
[26] = second compound 3.16 µM, first compound 0.1 µM
[27] = second compound 3.16 µM, first compound 0.316 µM
[28] = second compound 3.16 µM, first compound 1 µM
[29] = second compound 3.16 µM, first compound 3.16 µM
[30] = second compound 3.16 µM, first compound 10 µM
[31] = second compound 10 µM, first compound 0.0316 µM
[32] = second compound 10 µM, first compound 0.1 µM
[33] = second compound 10 µM, first compound 0.316 µM
[34] = second compound 10 µM, first compound 1 µM
[35] = second compound 10 µM, first compound 3.16 µM
[36] = second compound 10 µM, first compound 10 µM
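Note: viability read after seven days of drug exposure.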
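Throughout, for viability, T/C: 100% = DMSO vehicle control wells.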

SMILES: O=C(c1cc(Cc2n[nH]c(=O)c3ccccc23)ccc1F)N1CCN(C(=O)C2CC2)CC1 + CN1CCN(c2cc(C(=O)Nc3cc4cc(-c5cnn(C)c5)ccc4cn3)ccn2)CC1
- IC50 (second compound 0.0316 µM): 4050 nM
- IC50 (second compound 0.1 µM): < 31.6 nM
- IC50 (second compound 0.316 µM): < 31.6 nM
- IC50 (second compound 1 µM): < 31.6 nM
- IC50 (second compound 3.16 µM): < 31.6 nM
- IC50 (second compound 10 µM): < 31.6 nM
- viability, T/C [1]: 76.9%
- viability, T/C [2]: 76.8%
- viability, T/C [3]: 65.2%
- viability, T/C [4]: 70.5%
- viability, T/C [5]: 55.5%
- viability, T/C [6]: 29.6%
- viability, T/C [7]: 46.9%
- viability, T/C [8]: 50.8%
- viability, T/C [9]: 42.5%
- viability, T/C [10]: 49.2%
- viability, T/C [11]: 36.4%
- viability, T/C [12]: 19.4%
- viability, T/C [13]: 20.6%
- viability, T/C [14]: 24.1%
- viability, T/C [15]: 19.9%
- viability, T/C [16]: 19.9%
- viability, T/C [17]: 18.9%
- viability, T/C [18]: 16.4%
- viability, T/C [19]: 1.69%
- viability, T/C [20]: 1.71%
- viability, T/C [21]: 1.98%
- viability, T/C [22]: 1.94%
- viability, T/C [23]: 2.27%
- viability, T/C [24]: 1.74%
- viability, T/C [25]: 0.26%
- viability, T/C [26]: 0.21%
- viability, T/C [27]: 0.25%
- viability, T/C [28]: 0.1%
- viability, T/C [29]: 0.36%
- viability, T/C [30]: 0.49%
- viability, T/C [31]: 0.11%
- viability, T/C [32]: 0.21%
- viability, T/C [33]: 0.24%
- viability, T/C [34]: 0.17%
- viability, T/C [35]: 0.26%
- viability, T/C [36]: 0.28%

SMILES: C#Cc1c(F)ccc2cc(O)cc(-c3ncc4c(N5CC6CCC(C5)N6)nc(OCC56CCCN5CC(F)C6)nc4c3F)c12 (centres undefined) + CNC(=O)c1ccc(Nc2nc(OC3CCCC3)c3c(-c4ccc5nc(C)oc5c4)c[nH]c3n2)c(OC)c1
- IC50 (second compound 0.0316 µM): 4700 nM
- IC50 (second compound 0.1 µM): < 31.6 nM
- IC50 (second compound 0.316 µM): < 31.6 nM
- IC50 (second compound 1 µM): < 31.6 nM
- IC50 (second compound 3.16 µM): < 31.6 nM
- IC50 (second compound 10 µM): < 31.6 nM
- viability, T/C [1]: 73.7%
- viability, T/C [2]: 87.6%
- viability, T/C [3]: 71.8%
- viability, T/C [4]: 69.6%
- viability, T/C [5]: 57.8%
- viability, T/C [6]: 35.7%
- viability, T/C [7]: 29.6%
- viability, T/C [8]: 29.6%
- viability, T/C [9]: 21.5%
- viability, T/C [10]: 22.8%
- viability, T/C [11]: 20.5%
- viability, T/C [12]: 18.6%
- viability, T/C [13]: 20.1%
- viability, T/C [14]: 18.9%
- viability, T/C [15]: 14.5%
- viability, T/C [16]: 16.9%
- viability, T/C [17]: 12.7%
- viability, T/C [18]: 14.8%
- viability, T/C [19]: 14.8%
- viability, T/C [20]: 14.9%
- viability, T/C [21]: 13.8%
- viability, T/C [22]: 15.1%
- viability, T/C [23]: 14.8%
- viability, T/C [24]: 15.6%
- viability, T/C [25]: 13.5%
- viability, T/C [26]: 16.4%
- viability, T/C [27]: 14.8%
- viability, T/C [28]: 16.8%
- viability, T/C [29]: 12.4%
- viability, T/C [30]: 12.4%
- viability, T/C [31]: 15.9%
- viability, T/C [32]: 18%
- viability, T/C [33]: 16.2%
- viability, T/C [34]: 16.8%
- viability, T/C [35]: 16.2%
- viability, T/C [36]: 11.5%
